{
  "source": "patent US20110160123A1",
  "about": "“TARGETING THE EFFLUX SYSTEMS OF MYCOBACTERIUM TUBERCULOSIS” (THE UAB RESEARCH FOUNDATION, priority 2008, published 2011)",
  "key": {"[1]": {"test_system": "M. smegmatis SMR5 with rv0194 expression vector pML655", "assay_type": "cell-based"}, "[2]": {"test_system": "M. smegmatis SMR5 wt (pMS2) and rv0194-expressing strain (pML655)", "assay_type": "cell-based"}, "M. tuberculosis": {"test_system": "M. tuberculosis", "assay": "Minimal inhibitory concentration of copper on Hartmans de Bond medium", "assay_type": "cell-based"}, "[3]": {"test_system": "M. smegmatis ms3747 mutant ML77", "assay_type": "cell-based", "conditions": "ms3747 mutant versus wt M. smegmatis"}, "E. coli": {"test_system": "E. coli", "conditions": "cited from earlier work"}, "wild-type M. bovis BCG": {"test_system": "wild-type M. bovis BCG", "assay": "microbe, parasite or virus in culture", "assay_type": "cell-based", "conditions": "for MIC: Mycobacterium tuberculosis variant bovis BCG, BCG, read-out: MIC WT"}, "M. smegmatis WT (SMR5)": {"test_system": "M. smegmatis WT (SMR5)", "assay": "microbe, parasite or virus in culture", "assay_type": "cell-based", "conditions": "for MIC: Mycolicibacterium smegmatis"}, "[4]": {"test_system": "M. smegmatis ΔmspA mutant MN01", "conditions": "ΔmspA mutant compared with wild-type M. smegmatis; cited from earlier work"}},
  "note": "Where two headings read alike, the source gives them in different places.",
  "data": [
    {"smiles": "COC(=O)[C@H]1[C@H]2C[C@@H]3c4[nH]c5cc(OC)ccc5c4CCN3C[C@H]2C[C@@H](OC(=O)c2cc(OC)c(OC)c(OC)c2)[C@@H]1OC", "note": "[reserpine]", "values": [
      {"measurement": "accumulation of ethidium bromide after addition of reserpine", "setting": "[1]", "result": "quickly reached levels observed for wt M. smegmatis"},
      {"measurement": "growth with reserpine in the presence of ethidium bromide", "setting": "[2]", "result": "completely inhibited growth of both strains"}
    ]},
    {"smiles": "[Cu]", "note": "[copper]", "values": [
      {"measurement": "minimal inhibitory concentration of copper", "setting": "M. tuberculosis", "result": "less than 24 μM"},
      {"measurement": "copper concentration affecting growth, mutant relative to wt", "setting": "[3]", "result": "four-fold lower"},
      {"measurement": "minimal inhibitory concentration of copper", "setting": "E. coli", "result": "≈ 3 mM"}
    ]},
    {"smiles": "CN[C@H](CC(C)C)C(=O)N[C@H]1C(=O)N[C@@H](CC(N)=O)C(=O)N[C@H]2C(=O)N[C@H]3C(=O)N[C@H](C(=O)N[C@H](C(=O)O)c4cc(O)cc(O)c4-c4cc3ccc4O)[C@H](O)c3ccc(c(Cl)c3)Oc3cc2cc(c3O[C@@H]2O[C@H](CO)[C@@H](O)[C@H](O)[C@H]2O[C@H]2C[C@](C)(N)[C@H](O)[C@H](C)O2)Oc2ccc(cc2Cl)[C@H]1O", "note": "[Vancomycin]", "values": [
      {"measurement": "MIC", "setting": "wild-type M. bovis BCG", "result": 5, "unit": "µg/mL"},
      {"measurement": "MIC", "setting": "M. smegmatis WT (SMR5); read-out: MIC WT", "result": 1.25, "unit": "µg/mL"}
    ]},
    {"smiles": "CC[C@H]1OC(=O)[C@H](C)[C@@H](O[C@H]2C[C@@](C)(OC)[C@@H](O)[C@H](C)O2)[C@H](C)[C@@H](O[C@@H]2O[C@H](C)C[C@H](N(C)C)[C@H]2O)[C@](C)(O)C[C@@H](C)C(=O)[C@H](C)[C@@H](O)[C@]1(C)O", "note": "[Erythromycin]", "values": [
      {"measurement": "MIC", "setting": "M. smegmatis WT (SMR5); read-out: MIC WT", "result": 2.5, "unit": "µg/mL"}
    ]},
    {"smiles": "CO[C@@H]1[C@@H](OC(N)=O)[C@@H](O)[C@H](Oc2ccc3c(O)c(NC(=O)c4ccc(O)c(CC=C(C)C)c4)c(=O)oc3c2C)OC1(C)C", "note": "[Novobiocin]", "values": [
      {"measurement": "MIC", "setting": "M. smegmatis WT (SMR5); read-out: MIC WT", "result": 4, "unit": "µg/mL"}
    ]},
    {"smiles": "CN(C)[C@@H]1C(=O)C(C(N)=O)=C(O)[C@@]2(O)C(=O)C3=C(O)c4c(O)cccc4[C@@](C)(O)[C@H]3C[C@@H]12", "note": "[Tetracyclin]", "values": [
      {"measurement": "MIC WT", "setting": "wild-type M. bovis BCG", "result": 2, "unit": "µg/mL"},
      {"measurement": "MIC WT", "setting": "M. smegmatis WT (SMR5)", "result": 0.3, "unit": "µg/mL"}
    ]},
    {"smiles": "O=C(N[C@H](CO)[C@H](O)c1ccc([N+](=O)[O-])cc1)C(Cl)Cl", "note": "[Chloramphenicol]", "values": [
      {"measurement": "MIC", "setting": "wild-type M. bovis BCG", "result": 8, "unit": "µg/mL"},
      {"measurement": "MIC", "setting": "M. smegmatis WT (SMR5); read-out: MIC WT", "result": 32, "unit": "µg/mL"}
    ]},
    {"smiles": "CC1(C)S[C@@H]2[C@H](NC(=O)[C@H](N)c3ccccc3)C(=O)N2[C@H]1C(=O)O", "note": "[Ampicillin]", "values": [
      {"measurement": "MIC", "setting": "wild-type M. bovis BCG", "result": 62.5, "unit": "µg/mL"},
      {"measurement": "increased resistance toward ampicillin", "setting": "[4]", "result": 16, "unit": "fold"},
      {"measurement": "MIC", "setting": "M. smegmatis WT (SMR5); read-out: MIC WT", "result": 125, "unit": "µg/mL"}
    ]},
    {"smiles": "CC[n+]1c(-c2ccccc2)c2cc(N)ccc2c2ccc(N)cc21", "note": "[ethidium bromide]", "values": [
      {"measurement": "MIC", "setting": "M. smegmatis WT (SMR5); read-out: MIC of ethidium bromide", "result": 1.25, "unit": "µg/mL"}
    ]},
    {"smiles": "[H]/N=C(/N)N[C@H]1[C@H](O)[C@@H](O)[C@H](O[C@@H]2O[C@@H](C)[C@](O)(C=O)[C@H]2O[C@@H]2O[C@@H](CO)[C@H](O)[C@@H](O)[C@@H]2NC)[C@@H](N/C(N)=N\\[H])[C@@H]1O", "note": "[Streptomycin]", "values": [
      {"measurement": "MIC", "setting": "wild-type M. bovis BCG", "result": 0.5, "unit": "µg/mL"}
    ]}
  ]
}
